Source: patent US20150141349A1, “Method and Composition for Alleviating Tumor Symptoms” (Angiogene Pharmaceuticals Ltd., priority 2012, published 2015)
“And” between values parts separate entries of the source, which are not always exact repeats. Identical values can stand only once.

Legend:
[1] = test system: Pancreatic Endocrine Tumors; assay: Serum insulin (ELISA) in Pdx1-Cre:Men1floxed/floxed mice treated with CA4P; assay type: in vivo
Procedure: Eight Pdx1-Cre:Men1floxed/floxed mice (described in Shen et al. Cancer Res. 2009, 69(5):1858-66) were divided into treated group (n=4) and control group (n=4). In an ongoing experiment, the mice from the treated group and control group were injected i.p. daily with CA4P (100 mg/kg) and saline, respectively, for three days monthly. The mice underwent a 24 h fast prior to collecting whole blood via a retro-orbital bleeding technique weekly at pre- and post-treatment. Glucose levels were monitored by enzymatic colorimetric assay. All mice underwent a microPET/CT scan monthly. Anti-tumor activity was measured by standardized-uptake value (SUV) analysis. All mice were weighed three times per week as an indicator of toxicity.

[2] = test system: GH3 pituitary tumor cells; assay: Tumor necrosis in GH3 tumors (prolactinomas) after CA4P (H&E histology, image analysis); assay type: in vivo, rat
Procedure: (§1) Eighteen female Wistar Furth rats (Charles River, France), weighing approximately 130-140 g, were inoculated subcutaneously in the flanks with 1×10^6 GH3 pituitary tumor cells. Tumors were typically used for experimentation when they reached approximately 1 cm in diameter, or 300-1000 mm^3. Blood was taken from the tail vein of each rat 24 h before treatment with 100 mg/kg of vascular disrupting agent, CA4P, formulated in 20% of 5% aqueous sodium bicarbonate in 80% phosphate buffered saline. The CA4P was administered as a bolus injection through the tail vein. 24 h or 48 h after treatment a further blood sample was taken from the tail vein and the rats euthanized. Tumors were excised, fixed in formalin and stained with H&E for histology. Necrosis was determined by image analysis (Image J).

[3] = test system: GH3 pituitary tumor cells; assay: Prolactin and growth hormone (ELISA) in GH3 tumor-bearing rats treated with CA4P; assay type: in vivo, rat; set-up: tumor GH pre- / tumor GH post-: unit not given beside the values; details: for Growth Hormone tumor-derived: historical background 46 ng/ml subtracted; for Prolactin tumor-derived: historical basal level 26 ng/ml subtracted; for GH % decrease: tumor-derived GH
Procedure: as §1
Prolactin and growth hormone were measured using commercial ELISA's (SPI/BIO Bertin Pharma/Cayman kits sourced from Bioquote Limited, York, UK). Tumor-derived prolactin levels were calculated assuming a historical basal level of 26 ng/ml. […] Tumor-derived growth hormone levels were calculated by subtracting a historical value for background growth hormone of 46 ng/ml. […] All measurements for the control group were performed 24 hours after injection of saline.

[4] = test system: GH3 pituitary tumor cells; assay: Circulating growth hormone and prolactin (ELISA) in GH3 tumor-bearing rats treated with ZD6126; assay type: in vivo, rat; set-up: Growth Hormone pre / Growth Hormone post / Prolactin pre / Prolactin post: unit not given beside the values
Procedure: (§2) Four female Wistar Furth rats, weighing approximately 160 g, were inoculated subcutaneously in the flanks with GH3 pituitary tumor cells. Tumors were typically used for experimentation when they reached approximately 1000-3000 mm^3. Blood was taken from the tail vein of each rat 24 h before treatment with 50 mg/kg of vascular disrupting agent, ZD6126, formulated in 20% of 5% aqueous sodium bicarbonate in 80% phosphate buffered saline. The vascular disrupting agent was administered as a bolus injection through the tail vein. 24 h after treatment a further blood sample was taken from the tail vein and the rats euthanized. Tumors were excised, fixed in formalin and stained with H&E for histology. Necrosis was determined by image analysis (Image J). Blood samples were analyzed for prolactin and growth hormone at by ELISA using kits supplied by SPIbio.
Since control animals had significant levels of both hormones (within the normal range) and since the VDA could not be expected to reduce normal host hormone production it might be reasonable to subtract a figure from each reading to allow for the persisting host-derived hormone. Although data on normal hormone levels were derived from a single control (non-tumor bearing) animal, the values are very much in agreement with those reported in the literature. Subtracting this value would give a rough estimate of the reduction in rats 1 and 2 of tumor-derived growth hormone of 72% and 40% and a reduction in tumor-derived prolactin of 65% and 33% respectively.

[5] = test system: GH3 pituitary tumor cells; assay: Tumor necrosis in GH3 rat pituitary tumors after ZD6126 (H&E histology, image analysis); assay type: in vivo; details: individual rats; 24 h after 50 mg/kg ZD6126 bolus tail vein
Procedure: as §2

carcinoid metastases = details: compared with 55% for hepatic artery embolization; cited from earlier work
neuroendocrine tumor = details: prolonged treatment, in combination with octreotide (Yao et al. 2008); cited from earlier work
[6] = 24 h after 100 mg/kg CA4P, individual rats
[7] = 48 h after 100 mg/kg CA4P, individual rats
[8] = 24 h after 50 mg/kg ZD6126, individual rats, ±SD
[9] = baseline, blood 24 h before ZD6126 treatment, individual rats, ±SD
[10] = pre vs 24 h after 50 mg/kg ZD6126, individual rats
[11] = rats 1 and 2, rough estimate after subtracting value of tumor-free control

COc1ccc(/C=C\c2cc(OC)c(OC)c(OC)c2)cc1OP(=O)(O)O [CA4P, combretastatin A-4 phosphate]
Serum Insulin ([1]; Day 0 (baseline), CA4P group n=4, P vs PBS 0.6720): 3.695 ± 0.669 µg/L | Serum Insulin ([1]; Day 4, CA4P 100 mg/kg i.p. daily for three days, 24 h fast, P vs PBS 0.3699): 3.060 ± 1.037 µg/L | Serum Insulin ([1]; Day 11, CA4P 100 mg/kg i.p. daily for three days, 24 h fast, P vs PBS 0.0350): 2.495 ± 0.8722 µg/L | % tumor necrosis ([2]; 24 h after 100 mg/kg CA4P, group mean): 43.7 ± 29.6% | % tumor necrosis [2, 6]: 83% and 58% and 3% and 59% (2×) | % tumor necrosis ([2]; 48 h after 100 mg/kg CA4P, group mean): 61.7 ± 27.4% | % tumor necrosis [2, 7]: 77% and 30% | Prolactin total ([3]; 24 h after 100 mg/kg CA4P bolus tail vein, n=6): 64.6 ± 19.1 ng/ml ± SD | Growth Hormone tumor-derived ([3]; 24 h after 100 mg/kg CA4P, n=6): 29.1 ± 13.6 ng/ml ± SD | Prolactin tumor-derived ([3]; 24 h after 100 mg/kg CA4P, n=6): 38.6 ± 19.1 ng/ml ± SD | tumor GH post- [3, 6]: 15.8 and 29.1 and 48.4 and 19.2 and 42.4 | GH % decrease [3, 6]: 63.2% and 36.0% and 21.6% and 50.0% and 6.2% | Growth Hormone total ([3]; 24 h after 100 mg/kg CA4P, n=6): 75.1 ± 13.6 ng/ml ± SD | Growth Hormone tumor-derived ([3]; 48 h after 100 mg/kg CA4P, n=2): 20.8 ± 7.8 ng/ml ± SD | Prolactin tumor-derived ([3]; 48 h after 100 mg/kg CA4P, n=2): 28.3 ± 20.2 ng/ml ± SD | tumor GH post- [3, 7]: 15.3 and 26.3 | GH % decrease [3, 7]: 64.1% and 35.2% | Growth Hormone total ([3]; 48 h after 100 mg/kg CA4P, n=2): 66.8 ± 7.8 ng/ml ± SD | Prolactin total ([3]; 48 h after 100 mg/kg CA4P, n=2): 54.3 ± 20.2 ng/ml ± SD | tumor GH pre- ([3]; baseline before CA4P, individual rats, tumor-derived growth hormone): 42.9 and 45.5 and 61.7 and 38.4 and 45.2 and 42.6 and 40.6 | total and tumor-derived growth hormone after treatment (in words) ([3]; p<0.03, one-tailed t-test): statistically lower amount | total and tumor-derived prolactin after treatment (in words) ([3]; p<0.04, one-tailed T-test): statistically lower amount

COc1cc2c(c(OC)c1OC)-c1ccc(OP(=O)(O)O)cc1[C@@H](NC(C)=O)CC2 [ZD6126]
Growth Hormone post [4, 8]: 91 ± 7 and 102 ± 4 and 204 ± 14 and 171 ± 11 | Prolactin post [4, 8]: 90 ± 2 and 78 ± 3 and 129 ± 5 and 52 ± 1 | Growth Hormone pre [4, 9]: 214 ± 11 and 139 ± 8 and 193 ± 4 and 146 ± 4 | Prolactin pre [4, 9]: 211 ± 28 and 104 ± 3 and 134 ± 17 and 53 ± 3 | Growth Hormone Δ (percent reduction) [4, 10]: 57 and 26 and −5 and −16 | Prolactin Δ (percent reduction) [4, 10]: 57 and 24 and 4 and 1 | reduction in tumor-derived prolactin [4, 11]: ~65% and ~33% | reduction of tumor-derived growth hormone [4, 11]: ~72% and ~40% | % necr. (tumor necrosis) [5]: 39% and 42% and little or no necrosis and 0%

CO[C@H]1C[C@@H]2CC[C@@H](C)[C@@](O)(O2)C(=O)C(=O)N2CCCC[C@H]2C(=O)O[C@H]([C@H](C)C[C@@H]2CC[C@@H](OCCO)[C@H](OC)C2)CC(=O)[C@H](C)/C=C(\C)[C@@H](O)[C@@H](OC)C(=O)[C@H](C)C[C@H](C)/C=C/C=C/C=C/1C [everolimus]
response rate (Phase II trials) (carcinoid metastases): 13%

COc1cc2ncnc(Nc3ccc(F)c(Cl)c3)c2cc1OCCCN1CCOCC1 [gefitinib]
response rate (Phase II trials) (carcinoid metastases): 2%

Cc1ccc(NC(=O)c2ccc(CN3CCN(C)CC3)cc2)cc1Nc1nccc(-c2cccnc2)n1 [imatinib]
response rate (Phase II trials) (carcinoid metastases): 4%

CNC(=O)c1cc(Oc2ccc(NC(=O)Nc3ccc(Cl)c(C(F)(F)F)c3)cc2)ccn1 [sorafenib]
response rate (Phase II trials) (carcinoid metastases): 10%

Clc1ccc(Nc2nnc(Cc3ccncc3)c3ccccc23)cc1 [valatinib]
response rate (Phase II trials) (carcinoid metastases): 0%

bevacizumab: anti-VEGF antibody
response rate (Phase II trials) (carcinoid metastases): 18% | neuroendocrine tumor patients achieving a meaningful reduction in urinary 5-HIAA (neuroendocrine tumor): 19% | patients achieving a reduction in plasma levels of chromogranin A (neuroendocrine tumor): 6%
